Experimental data reported in BindingDB's records for doi:10.7270/Q2ZC819K (Burnham Center For Chemical Genomics, 2009).

Each molecule was assayed against Polyadenylate-binding protein 1 (Homo sapiens, UniProt P11940) (assay: PABP poly(A) RNA binding inhibitors, primary screen, biochemical, fluorescence polarization, uHTS (AID 2014)).
Chain of Polyadenylate-binding protein 1 (P11940 whole entry): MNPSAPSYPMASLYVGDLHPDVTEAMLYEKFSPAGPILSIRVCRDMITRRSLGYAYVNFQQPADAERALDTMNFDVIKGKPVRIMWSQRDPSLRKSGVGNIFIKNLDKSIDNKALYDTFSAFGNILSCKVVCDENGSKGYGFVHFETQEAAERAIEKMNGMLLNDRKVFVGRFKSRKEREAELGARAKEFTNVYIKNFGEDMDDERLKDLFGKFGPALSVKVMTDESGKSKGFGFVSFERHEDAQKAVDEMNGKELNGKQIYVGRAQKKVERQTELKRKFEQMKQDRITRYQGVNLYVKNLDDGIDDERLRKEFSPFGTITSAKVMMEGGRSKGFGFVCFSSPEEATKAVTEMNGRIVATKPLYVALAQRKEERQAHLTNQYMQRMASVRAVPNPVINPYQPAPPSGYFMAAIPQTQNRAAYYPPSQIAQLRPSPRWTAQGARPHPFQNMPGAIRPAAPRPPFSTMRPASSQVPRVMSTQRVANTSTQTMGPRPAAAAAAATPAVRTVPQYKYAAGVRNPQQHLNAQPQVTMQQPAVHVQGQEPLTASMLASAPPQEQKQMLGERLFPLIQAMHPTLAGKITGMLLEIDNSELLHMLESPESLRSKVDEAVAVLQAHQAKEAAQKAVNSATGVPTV

Question: With `CC1=NC(=O)NC(c2ccco2)C1C(=O)OC(C)C` (centres undefined) [SMR000120838] as the molecule, how does the IC50 read?
Answer: The IC50 was 42.8 µM.

Question: How did the IC50 turn out when `O=C(O)c1ccc(N=NCc2cc3c(cc2[N+](=O)[O-])OCO3)cc1` was run?
Answer: Its IC50 is 48.8 µM.

Question: Which IC50 does the source give for `O=C1N=c2ccccc2=C1NNC(=O)c1cc(-c2cccs2)n[nH]1` [N'-(2-oxoindol-3-yl)-5-thiophen-2-yl-1H-pyrazole-3-carbohydrazide] here?
Answer: The IC50 was 28.8 µM.

Question: `COc1ccc2c(c1)=C(NNC(=O)Cc1cccs1)C(=O)N=2` was tested. Which IC50 did it give?
Answer: Its IC50 is 31 µM.

Question: Which IC50 does the source give for `COc1cc(C)cc(C(=O)O)c1C1C(=O)C(=O)c2c(O)cccc2C1=O` (centres undefined) [MLS000877007] here?
Answer: Its IC50 is 5.41 µM.

Question: For `CC[N+](C)(CC)CCCC(N=O)C(O)(c1ccccc1)c1ccccc1` (centres undefined) [diethyl-(5-hydroxy-4-hydroxyimino-5,5-diphenylpentyl)-methylammonium;iodide], which IC50 is on record?
Answer: The IC50 was 5.57 µM.

Question: With `COc1ccc(CN=Nc2nc(O)c(CC(=O)O)s2)cc1OCc1ccc(Cl)cc1Cl` [[2-({3-[(2,4-dichlorobenzyl)oxy]-4-methoxybenzylidene}hydrazono)-4-oxo-1,3-thiazolidin-5-yl]acetic acid] as the molecule, how does the IC50 read?
Answer: Its IC50 is 64.3 µM.

Question: Which IC50 does the source give for `CC1(C)Oc2ccc3ccc(=O)oc3c2C(CN=O)=C1Cl` [9-chloro-2-keto-8,8-dimethyl-pyrano[2,3-f]chromene-10-carbaldehyde oxime] here?
Answer: Its IC50 is 10.3 µM.

Question: For `CCn1c(=NC(=O)c2ccc(-n3c(O)ccc3O)cc2)sc2c(OC)ccc(OC)c21` [4-[2,5-bis(oxidanylidene)pyrrolidin-1-yl]-N-(3-ethyl-4,7-dimethoxy-1,3-benzothiazol-2-ylidene)benzamide], which IC50 is on record?
Answer: Its IC50 is 100 µM.
